According to US4259235A, “Tricyclic nitrogenous compounds having string plant growth regulating properties” (BASF Aktiengesellschaft, priority 1977, dated 1981):

What was measured:
[1] = tested on: spring wheat; test: Growth height of spring wheat, soil (preemergence) treatment, Example 9; format: in vivo, spring wheat ("Opal" variety); settings: 30 days
Procedure: (§1) Spring wheat of the "Opal" variety and spring barley of the "Union" variety were grown in the winter half of the year under greenhouse conditions in plastic dishes 11.5 cm in diameter, in a peat substrate provided with sufficient nutrients.
(§2) The reductions in growth height caused by the treatment were determined by measuring the height of the plants at the end of the experiment after 30 days' growth, and comparing it with that of untreated plants.

[2] = tested on: spring rye; test: Growth height of spring rye, soil treatment, Example 11; format: in vivo, spring rye ("Petkuser" variety)
Procedure: (§3) The test plants--spring wheat ("Opal" variety), spring barley ("Union" variety) and spring rye ("Petkuser" variety)--were grown under greenhouse conditions in plastic dishes 11.5 cm in diameter, in a peat substrate provided with sufficient nutrients.
(§4) The soil (preemergence) treatment was effected after sowing by pouring aqueous formulations of the active ingredients, at four application rates, onto the surface of the substrate.
(§5) The shortening effect caused by the compounds was shown by measurements of the height of the plants at the end of the experiment.
(§6) The prior art compound N,N,N-trimethyl-N-β-chloroethylammonium chloride (CCC, German Printed Application DAS No. 1,294,734) was used for comparison purposes.

[3] = tested on: spring barley; test: Growth height of spring barley, leaf treatment, Example 11; format: in vivo, spring barley ("Union" variety)
Procedure: as §3
(§7) Leaf treatment was effected by spraying the plants at a growth height of 11 cm with aqueous formulations of the active ingredients, at three application rates.
as §5, §6

[4] = tested on: spring rye; test: Growth height of spring rye, leaf treatment, Example 11; format: in vivo, spring rye ("Petkuser" variety)
Procedure: as §3, §7, §5, §6

[5] = tested on: spring barley; test: Growth height of spring barley, soil treatment, Example 11; format: in vivo, spring barley ("Union" variety)
Procedure: as §3, §4, §5, §6

[6] = tested on: spring barley; test: Growth height of spring barley, soil (preemergence) treatment, Example 9; format: in vivo, spring barley ("Union" variety); settings: 30 days
Procedure: as §1, §2

[7] = tested on: spring wheat; test: Growth height of spring wheat, leaf treatment, Example 11; format: in vivo, spring wheat ("Opal" variety)
Procedure: as §3, §7, §5, §6

C1C2C3N=NC3C1C1OC21 (centres unmarked) [drawing 388]
Plant height ([1]; 3 kg/ha): 21.5 cm | Plant height, % of untreated control ([1]; 3 kg/ha): 71.7% | Plant height ([1]; 12 kg/ha): 12.5 cm | Plant height, % of untreated control ([1]; 12 kg/ha): 41.7%

Clc1ccc(NC2C(Cl)C3CC2C2N=NC32)cc1 (centres unmarked) [drawing 421]
Plant height ([2]; 0.75 kg/ha): 28.0 cm | Plant height, % of untreated control ([2]; 0.75 kg/ha): 86.7% | Plant height ([2]; 1.50 kg/ha): 27.0 cm | Plant height, % of untreated control ([2]; 1.50 kg/ha): 83.5% | Plant height ([2]; 3.00 kg/ha): 25.0 cm | Plant height, % of untreated control ([2]; 3.00 kg/ha): 77.4% | Plant height ([2]; 6.00 kg/ha): 23.0 cm | Plant height, % of untreated control ([2]; 6.00 kg/ha): 71.2%

Clc1ccc(NC2C(Cl)C3CC2C2N=NC32)cc1 (centres unmarked) [drawing 419]
Plant height ([3]; 0.75 kg/ha): 26.0 cm | Plant height, % of untreated control ([3]; 0.75 kg/ha): 93.5% | Plant height ([3]; 1.50 kg/ha): 25.5 cm | Plant height, % of untreated control ([3]; 1.50 kg/ha): 91.7% | Plant height ([3]; 3.00 kg/ha): 23.5 cm | Plant height, % of untreated control ([3]; 3.00 kg/ha): 84.5%

c1ccc(C2=NOC3C4CC(C5N=NC45)C23)cc1 (centres unmarked) [drawing 389]
Plant height ([1]; 3 kg/ha): 20.0 cm | Plant height, % of untreated control ([1]; 3 kg/ha): 66.7% | Plant height ([1]; 12 kg/ha): 14.0 cm | Plant height, % of untreated control ([1]; 12 kg/ha): 46.7%

Clc1ccc(NC2C(Cl)C3CC2C2N=NC32)cc1 (centres unmarked) [drawing 423]
Plant height ([4]; 0.75 kg/ha): 25.5 cm | Plant height, % of untreated control ([4]; 0.75 kg/ha): 89.5% | Plant height ([4]; 1.50 kg/ha): 24.5 cm | Plant height, % of untreated control ([4]; 1.50 kg/ha): 86.0% | Plant height ([4]; 3.00 kg/ha): 24.5 cm | Plant height, % of untreated control ([4]; 3.00 kg/ha): 86.0%

c1ccc(C2=NNC3C4CC(C5N=NC45)C23)cc1 (centres unmarked) [drawing 417]
Plant height ([5]; 0.75 kg/ha): 32.0 cm | Plant height, % of untreated control ([5]; 0.75 kg/ha): 97.6% | Plant height ([5]; 1.50 kg/ha): 28.0 cm | Plant height, % of untreated control ([5]; 1.50 kg/ha): 85.4% | Plant height ([5]; 3.00 kg/ha): 27.0 cm | Plant height, % of untreated control ([5]; 3.00 kg/ha): 82.3% | Plant height ([5]; 6.00 kg/ha): 23.0 cm | Plant height, % of untreated control ([5]; 6.00 kg/ha): 70.1%

C1C2C3N=NC3C1C1OC21 (centres unmarked) [drawing 390]
Plant height ([6]; 3 kg/ha): 25.0 cm | Plant height, % of untreated control ([6]; 3 kg/ha): 77.4% | Plant height ([6]; 12 kg/ha): 14.0 cm | Plant height, % of untreated control ([6]; 12 kg/ha): 43.3%

c1ccc(C2N=NC3C4CC(C5N=NC45)C23)cc1 (centres unmarked) [drawing 422]
Plant height ([4]; 0.75 kg/ha): 23.0 cm | Plant height, % of untreated control ([4]; 0.75 kg/ha): 80.7% | Plant height ([4]; 1.50 kg/ha): 20.5 cm | Plant height, % of untreated control ([4]; 1.50 kg/ha): 71.9% | Plant height ([4]; 3.00 kg/ha): 20.5 cm | Plant height, % of untreated control ([4]; 3.00 kg/ha): 71.9%

c1ccc(C2=NOC3C4CC(C5N=NC45)C23)cc1 (centres unmarked) [drawing 391]
Plant height ([6]; 3 kg/ha): 24.5 cm | Plant height, % of untreated control ([6]; 3 kg/ha): 75.9% | Plant height ([6]; 12 kg/ha): 16.0 cm | Plant height, % of untreated control ([6]; 12 kg/ha): 49.5%

c1ccc(C2N=NC3C4CC(C5N=NC45)C23)cc1 (centres unmarked) [drawing 418]
Plant height ([3]; 0.75 kg/ha): 23.5 cm | Plant height, % of untreated control ([3]; 0.75 kg/ha): 84.5% | Plant height ([3]; 1.50 kg/ha): 23.0 cm | Plant height, % of untreated control ([3]; 1.50 kg/ha): 82.7% | Plant height ([3]; 3.00 kg/ha): 21.5 cm | Plant height, % of untreated control ([3]; 3.00 kg/ha): 77.3%

c1ccc(C2=NNC3C4CC(C5N=NC45)C23)cc1 (centres unmarked) [drawing 416]
Plant height ([7]; 0.75 kg/ha): 26.5 cm | Plant height, % of untreated control ([7]; 0.75 kg/ha): 86.0% | Plant height ([7]; 1.50 kg/ha): 25.5 cm | Plant height, % of untreated control ([7]; 1.50 kg/ha): 82.8% | Plant height ([7]; 3.00 kg/ha): 24.0 cm | Plant height, % of untreated control ([7]; 3.00 kg/ha): 77.9%
